Experimental data published in PMC4170656 (Developmental cell, 2014).
Residue numbers refer to the chain shown, from its start.

Assays:
Assay type in all cases: binding
[1] = target: T1, His:ARD (ankyrin repeat domain of AKR2A) (Arabidopsis thaliana, UniProt Q9SAR5, H223A); assay: SPR sensorgrams, lipid vesicles on L1 chip; details: POPG/POPC (50:50) vesicles; pH 7.4, 0.16 M NaCl, 23°C; L1 site
T1 sequence (Q9SAR5 211-342 H223A): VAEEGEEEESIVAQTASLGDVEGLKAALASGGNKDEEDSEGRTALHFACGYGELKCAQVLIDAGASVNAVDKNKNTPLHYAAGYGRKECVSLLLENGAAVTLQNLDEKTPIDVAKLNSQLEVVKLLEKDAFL

[2] = target: T2, His:ARD (ankyrin repeat domain of AKR2A) (Arabidopsis thaliana, UniProt Q9SAR5, L315A); assay: SPR sensorgrams, lipid vesicles on L1 chip; details: POPG/POPC (50:50) vesicles; pH 7.4, 0.16 M NaCl, 23°C; L3 site
T2 sequence (Q9SAR5 211-342 L315A): T1 sequence (Q9SAR5 211-342 H223A) with A13H, L105A

[3] = target: T3, His:ARD (ankyrin repeat domain of AKR2A) (Arabidopsis thaliana, UniProt Q9SAR5, E246A); assay: SPR sensorgrams, lipid vesicles on L1 chip; details: POPG/POPC (50:50) vesicles; pH 7.4, 0.16 M NaCl, 23°C; L1 site
T3 sequence (Q9SAR5 211-342 E246A): T1 sequence (Q9SAR5 211-342 H223A) with A13H, E36A

[4] = target: T4, His:ARD (ankyrin repeat domain of AKR2A) (Arabidopsis thaliana, UniProt Q9SAR5, N314A); assay: SPR sensorgrams, lipid vesicles on L1 chip; details: POPG/POPC (50:50) vesicles; pH 7.4, 0.16 M NaCl, 23°C; L3 site
T4 sequence (Q9SAR5 211-342 N314A): T1 sequence (Q9SAR5 211-342 H223A) with A13H, N104A

[5] = target: T5, His:ARD (ankyrin repeat domain of AKR2A) (Arabidopsis thaliana, UniProt Q9SAR5, R296A); assay: SPR sensorgrams, lipid vesicles on L1 chip; details: POPG/POPC (50:50) vesicles; pH 7.4, 0.16 M NaCl, 23°C; L2 site
T5 sequence (Q9SAR5 211-342 R296A): T1 sequence (Q9SAR5 211-342 H223A) with A13H, R86A

[6] = target: T6, His:ARD (ankyrin repeat domain of AKR2A) (Arabidopsis thaliana, UniProt Q9SAR5, Y294A); assay: SPR sensorgrams, lipid vesicles on L1 chip; details: POPG/POPC (50:50) vesicles; pH 7.4, 0.16 M NaCl, 23°C; L2 site
T6 sequence (Q9SAR5 211-342 Y294A): T1 sequence (Q9SAR5 211-342 H223A) with A13H, Y84A

[7] = target: T7, His:AKR2A (full-length AKR2A) (Arabidopsis thaliana, UniProt Q9SAR5); assay: SPR, lipid vesicles on L1 chip; details: POPG/POPC/MGDG [50:(50−x):x] vesicles; pH 7.4, 0.16 M NaCl, 23°C
T7 sequence (Q9SAR5 1-342): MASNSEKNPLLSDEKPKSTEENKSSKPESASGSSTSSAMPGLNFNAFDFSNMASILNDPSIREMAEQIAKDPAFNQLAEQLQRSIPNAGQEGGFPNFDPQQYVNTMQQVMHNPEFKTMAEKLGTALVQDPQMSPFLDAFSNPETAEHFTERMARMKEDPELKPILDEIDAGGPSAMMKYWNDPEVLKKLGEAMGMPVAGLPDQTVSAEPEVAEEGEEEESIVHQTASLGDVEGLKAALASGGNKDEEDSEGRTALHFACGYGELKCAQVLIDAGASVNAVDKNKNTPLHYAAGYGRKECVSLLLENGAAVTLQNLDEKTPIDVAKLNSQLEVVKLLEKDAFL

In the case of `CCCCCCCC/C=C\CCCCCCCC(=O)O[C@H](COC(=O)CCCCCCCCCCCCCCC)COP(=O)(O)OCC(O)CO` (stereo partly shown) [POPG], the “SPR sensorgrams, lipid vesicles on L1 chip” value (“SPR sensorgrams” below) [1] is reported as “The L1 site mutants H223A and E246A also had a significantly lower binding affinity”, the “SPR sensorgrams” value [2] is reported as “the L3 site mutants (N314A and L315A) showed only modestly reduced binding” and the “SPR sensorgrams” value [3] is reported as “The L1 site mutants H223A and E246A also had a significantly lower binding affinity”. For the same compound, the “SPR sensorgrams” value [4] was “the L3 site mutants (N314A and L315A) showed only modestly reduced binding”, the “SPR sensorgrams” value [5] was “the L2 site mutants (Y294A and R296A) showed significantly lower binding than WT” and the “SPR sensorgrams” value [6] was “the L2 site mutants (Y294A and R296A) showed significantly lower binding than WT”. The “SPR, lipid vesicles on L1 chip” value [7] was “MGDG-dependent vesicle binding of full-length (FL) AKR2A (red) and ARD (blue)”.
